Entries after “also recorded” stand apart in the source; their conditions may differ.
Key:
[1] = test system: S. aureus strain USA300LAC biofilm; assay: Inhibition of biofilm formation (crystal violet); format: cell-based, Staphylococcus aureus
Protocol: (§1) The establishment of a bacterial biofilm usually begins with pathogen attachment to biotic and abiotic surfaces, and S. aureus is notorious for its ability to form biofilms on surfaces, such as implants and catheters, which presents a unique treatment challenge.
(§2) Overnight cultures of S. aureus strain USA300LAC were diluted into fresh TSB to an OD600nm = 0.001 and incubated aerobically at 37 °C until the mid-log phase. (A) To detect effects on biofilm formation, cultures were diluted to an OD600nm = 0.0001 in the presence and absence of JC-01-074 and vancomycin at concentrations of 0.5–4× MIC, respectively. (B) To detect effects on biofilm eradication, cultures were diluted to an OD600nm = 0.0001 and incubated under static conditions for 24 h, after which planktonic cells were removed, and the preformed biofilms were washed twice with PBS. […] Biofilm mass was quantified after 20 h via crystal violet staining. One-way ANOVA, Dunnett’s multiple-comparison test (* p < 0.05, ** p < 0.01); (n = 3, ±S.D.).
The overnight USA300LAC cultures were diluted 1000-fold into the fresh TSB media and incubated under shaking conditions at 37 °C until the mid-log phase. The cultures were subsequently diluted to approximately 4 × 10^6 CFU/mL and dispended into 96-well polystyrene plates (Alkali Scientific, Fort Lauderdale, FL, USA) containing DMSO (control), vancomycin (0.5–4× MIC), or the indicated alkyl pyridinol compounds (0.5–4× MIC) and sealed with a breath-easy membrane (Fisherbrand, Waltham, MA, USA). The peripheral wells were filled with PBS to limit evaporation. The plates were incubated without agitation at 37 °C for 24 h, following which the planktonic cells were removed. The biofilms were washed twice with PBS, stained with 0.1% crystal violet (CV) for 15 min, and washed again twice with PBS to remove the unbound CV dye. CV bound to biofilm cells was extracted with 30% (v/v) glacial acetic acid, and the O.D.595nm was determined.

[2] = test system: S. aureus strain USA300LAC established biofilm; assay: Biofilm eradication assay (crystal violet); format: cell-based, Staphylococcus aureus; conditions: at or below 4× MIC, 24 h, in words
Protocol: as §1, §2
The overnight USA300LAC cultures were diluted 1000-fold into the TSB media and incubated under shaking conditions at 37 °C until the mid-log phase. […] After 24 h of incubation, biofilm eradication was assessed via CV staining at 595 nm in a Tecan 200 Infinite Pro microplate reader (Tecan, Morgan Hill, CA, USA).

SMILES: CCCCCCCCCC#Cc1cccc(O)n1 [JC-01-074]
- reduction of biofilm formation ([1]; 0.5–4× MIC, dose-dependent): 60–70%
- inhibition of biofilm formation ([1]; up to 4× MIC, in words): very potent in inhibiting their formation
- eradication of established biofilms [2]: has no effect once biofilms have been established; also recorded: no significant effects on the already established biofilms

Source: publication PMC11428593 (Antibiotics, 2024)
